Values of other authors in patent publication US20250295592A1, “Method for Controlled Release Oral Drug Delivery” (priority 2024, published 2025).
Where two headings read alike, the source gives them in different places.

[1] = human stomach, acidic gastric contents

Row | SMILES | absorption from the stomach (in vivo) | absorption from the stomach [1]
1 | Cc1cc(=O)n(-c2ccccc2)n1C [antipyrine] | readily absorbed | –
2 | CCCC(C)C1(CC)C(=O)NC(=S)NC1=O (stereo not shown) [thiopental] | – | readily absorbed
3 | C=CCC1(C(C)CCC)C(=O)NC(=O)NC1=O (stereo not shown) [secobarbital] | – | readily absorbed
4 | CC(=O)Oc1ccccc1C(=O)O [aspirin] | – | readily absorbed
